13 compounds from patent US12662479B2 (Foghorn Therapeutics Inc., priority 2020, dated 2026) can be followed below.

Bounds are passed on as bounds.

One assay has as its target T1, HiBit-BRM fusion protein (Homo sapiens, UniProt P51531).
T1 construct: expressed in transfected cells
Nature of the assay: HiBiT-BRM cell-based degradation assay (Nano-Glo HiBiT Lytic Detection, 24 h). As to conditions: HeLa cells expressing HiBiT-BRM; for DC50: read-out: BRM HiBit Degradation IC50; for BRM HiBit Degradation Maximum measured: top dose 30 μM. A digest of the protocol: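 Stable HiBiT-BRM HeLa line; 24 h compound exposure, top final 30 μM, 3-fold, 10 pts in duplicate. Lytic HiBiT/LgBiT luminescence readout. % degradation vs DMSO (0%) and 2 μM known BRM/BRG1 degrader (100%).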
For orientation: With HiBiT, luminescence reflects the tagged protein that the partner subunit can reach.

Assay [1] has as its target T2, HiBit-BRG1 fusion protein (Homo sapiens, UniProt P51532).
T2 construct: expressed in transfected cells
Nature of the assay: HiBiT-BRG1 cell-based degradation assay (Nano-Glo HiBiT Lytic Detection, 24 h). As to conditions: HeLa cells expressing HiBit-BRG1 and LgBit; for DC50: read-out: BRG1 HiBit Degradation IC50; for Dmax: HeLa, top dose 30 μM, read-out: BRG1 HiBit Degradation Maximum measured. Put shortly:
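Degradation is scaled from DMSO-treated cells (0%) to cells given 2 μM of a known BRM/BRG1 degrader (100%). HeLa cells stably carrying HiBiT-BRG1 plus LgBiT (5000/well) were lysed with Nano-Glo HiBiT detection reagent, shaken 10 min at RT, and luminescence read.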

T2 sequence (P51532 whole entry, the tested form may be a part): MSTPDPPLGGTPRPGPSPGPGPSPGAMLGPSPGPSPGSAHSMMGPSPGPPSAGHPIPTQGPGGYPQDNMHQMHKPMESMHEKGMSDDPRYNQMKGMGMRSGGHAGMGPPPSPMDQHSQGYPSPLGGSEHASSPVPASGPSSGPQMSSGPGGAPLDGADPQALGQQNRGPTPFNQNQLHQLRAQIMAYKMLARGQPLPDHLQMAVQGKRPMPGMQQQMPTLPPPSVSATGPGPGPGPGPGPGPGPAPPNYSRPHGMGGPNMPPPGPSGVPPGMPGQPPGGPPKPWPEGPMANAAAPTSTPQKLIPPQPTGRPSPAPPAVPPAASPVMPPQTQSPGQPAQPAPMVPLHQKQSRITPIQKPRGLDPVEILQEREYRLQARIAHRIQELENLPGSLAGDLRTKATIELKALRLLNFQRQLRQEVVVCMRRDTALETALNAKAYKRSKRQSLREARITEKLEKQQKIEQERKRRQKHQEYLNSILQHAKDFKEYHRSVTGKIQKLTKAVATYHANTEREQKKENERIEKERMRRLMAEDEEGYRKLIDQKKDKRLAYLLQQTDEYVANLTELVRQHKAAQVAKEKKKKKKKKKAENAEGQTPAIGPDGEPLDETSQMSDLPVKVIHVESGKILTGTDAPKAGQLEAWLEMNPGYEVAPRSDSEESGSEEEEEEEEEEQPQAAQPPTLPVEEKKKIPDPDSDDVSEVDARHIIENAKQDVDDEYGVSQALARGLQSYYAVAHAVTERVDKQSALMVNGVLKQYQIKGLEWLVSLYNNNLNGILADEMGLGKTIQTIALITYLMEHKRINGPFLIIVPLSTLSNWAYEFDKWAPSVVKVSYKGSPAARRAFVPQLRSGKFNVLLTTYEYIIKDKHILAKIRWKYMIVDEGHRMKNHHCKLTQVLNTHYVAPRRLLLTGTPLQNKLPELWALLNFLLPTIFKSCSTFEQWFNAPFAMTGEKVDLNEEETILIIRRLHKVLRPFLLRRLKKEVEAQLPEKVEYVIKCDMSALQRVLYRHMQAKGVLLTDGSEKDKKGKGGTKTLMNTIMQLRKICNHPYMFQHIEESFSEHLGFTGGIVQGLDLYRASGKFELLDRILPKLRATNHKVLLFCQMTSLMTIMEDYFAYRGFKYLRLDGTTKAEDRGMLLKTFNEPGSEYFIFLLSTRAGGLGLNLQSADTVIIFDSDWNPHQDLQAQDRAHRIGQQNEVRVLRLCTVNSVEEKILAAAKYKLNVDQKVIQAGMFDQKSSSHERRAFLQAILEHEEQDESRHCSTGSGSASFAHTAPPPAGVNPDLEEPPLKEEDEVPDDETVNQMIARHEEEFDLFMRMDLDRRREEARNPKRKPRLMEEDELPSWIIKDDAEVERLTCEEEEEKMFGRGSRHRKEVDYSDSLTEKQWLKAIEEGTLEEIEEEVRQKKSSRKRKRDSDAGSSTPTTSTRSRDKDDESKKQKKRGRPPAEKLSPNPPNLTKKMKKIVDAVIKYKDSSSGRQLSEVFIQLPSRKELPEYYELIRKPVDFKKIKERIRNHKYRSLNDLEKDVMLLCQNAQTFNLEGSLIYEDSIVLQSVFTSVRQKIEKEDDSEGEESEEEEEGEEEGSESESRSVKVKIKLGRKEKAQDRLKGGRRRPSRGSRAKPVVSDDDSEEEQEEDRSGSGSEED
T1 sequence (P51531 whole entry, the tested form may be a part): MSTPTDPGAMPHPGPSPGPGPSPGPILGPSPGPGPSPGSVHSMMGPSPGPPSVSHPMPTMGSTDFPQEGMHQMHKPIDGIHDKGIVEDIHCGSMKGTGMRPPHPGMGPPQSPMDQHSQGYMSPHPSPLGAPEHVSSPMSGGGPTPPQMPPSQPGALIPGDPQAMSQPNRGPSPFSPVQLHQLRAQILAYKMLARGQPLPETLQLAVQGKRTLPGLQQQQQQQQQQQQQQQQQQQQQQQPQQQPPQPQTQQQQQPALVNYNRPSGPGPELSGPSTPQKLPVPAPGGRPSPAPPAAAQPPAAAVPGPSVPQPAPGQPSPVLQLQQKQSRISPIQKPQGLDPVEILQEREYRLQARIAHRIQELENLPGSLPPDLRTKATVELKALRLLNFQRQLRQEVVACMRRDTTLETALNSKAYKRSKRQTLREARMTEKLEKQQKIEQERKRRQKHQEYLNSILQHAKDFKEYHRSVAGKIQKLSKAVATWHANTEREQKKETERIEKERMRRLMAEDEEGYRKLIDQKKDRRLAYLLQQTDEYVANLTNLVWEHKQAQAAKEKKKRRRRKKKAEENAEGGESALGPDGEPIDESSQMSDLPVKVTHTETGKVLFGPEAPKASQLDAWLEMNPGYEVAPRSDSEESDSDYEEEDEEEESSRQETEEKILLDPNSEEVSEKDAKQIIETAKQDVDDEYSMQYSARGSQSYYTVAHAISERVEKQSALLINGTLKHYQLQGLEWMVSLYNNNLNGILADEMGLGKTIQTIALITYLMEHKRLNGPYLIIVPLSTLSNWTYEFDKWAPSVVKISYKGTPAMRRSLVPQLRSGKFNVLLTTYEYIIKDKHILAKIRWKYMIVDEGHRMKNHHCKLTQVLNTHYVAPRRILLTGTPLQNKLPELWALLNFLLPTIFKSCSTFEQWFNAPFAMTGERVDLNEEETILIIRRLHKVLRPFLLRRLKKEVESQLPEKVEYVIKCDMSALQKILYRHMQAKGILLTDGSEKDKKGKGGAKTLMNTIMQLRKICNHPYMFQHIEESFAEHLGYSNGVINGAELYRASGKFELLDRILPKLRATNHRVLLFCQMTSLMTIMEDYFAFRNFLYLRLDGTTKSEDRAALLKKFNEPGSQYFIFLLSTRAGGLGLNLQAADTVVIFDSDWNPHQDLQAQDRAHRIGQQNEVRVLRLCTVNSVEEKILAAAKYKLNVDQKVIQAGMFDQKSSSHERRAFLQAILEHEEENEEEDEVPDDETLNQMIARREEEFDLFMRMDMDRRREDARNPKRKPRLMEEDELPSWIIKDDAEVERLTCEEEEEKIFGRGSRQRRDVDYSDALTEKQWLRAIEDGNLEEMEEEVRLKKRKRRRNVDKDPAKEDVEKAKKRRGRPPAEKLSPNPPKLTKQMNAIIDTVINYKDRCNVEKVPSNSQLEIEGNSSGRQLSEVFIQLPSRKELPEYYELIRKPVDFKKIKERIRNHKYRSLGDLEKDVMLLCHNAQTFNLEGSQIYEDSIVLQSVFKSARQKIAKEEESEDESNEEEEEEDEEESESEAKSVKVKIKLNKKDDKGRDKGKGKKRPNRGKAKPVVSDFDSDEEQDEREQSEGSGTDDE

`CS(=O)(=O)n1ccc(C(=O)NCC(=O)Nc2nc(-c3cccc(-c4ccnc(C5(C(=O)NCCNc6ccc7c(c6)C(=O)N(C6CCC(=O)NC6=O)C7=O)CC5)c4)c3)cs2)c1` (stereo not shown) [Compound 133, N-(2-[[2-(2,6-dioxopiperidin-3-yl)-1,3-dioxoisoindol-5-yl]amino]ethyl)-1-[4-[3-(2-[2-[(1-methanesulfonylpyrrol-3-yl)formamido]acetamido]-1,3-thiazol-4-yl)phenyl]pyridin-2-yl]cyclopropane-1-carboxamide]: at HiBit-BRM fusion protein, the DC50 lay within 0.1 to 1 µM; the “BRM HiBit Degradation Maximum measured” value is “B (‘B’ = Maximum degradation ≥50% and ≤75%)”. In addition, in assay [1], the DC50 is under 0.1 µM and the Dmax was over 75%.
For the compound `CS(=O)(=O)n1ccc(C(=O)N[C@@H](CCOCCCC(=O)NCCCC#Cc2cccc3c2C(=O)N(C2CCC(=O)NC2=O)C3=O)C(=O)Nc2nc(-c3ccccc3)cs2)c1` (stereo partly drawn) [Compound 272, (2S)-4-[3-([5-[2-(2,6-dioxopiperidin-3-yl)-1,3-dioxoisoindol-4-yl]pent-4-yn-1-yl]carbamoyl)propoxy]-2-[(1-methanesulfonylpyrrol-3-yl)formamido]-N-(4-phenyl-1,3-thiazol-2-yl)butanamide], at HiBit-BRM fusion protein, the DC50 was over 10 µM and the “BRM HiBit Degradation Maximum measured” value is listed as “C (‘C’ = Maximum degradation <50%)”. In assay [1], the DC50 is over 10 µM and the Dmax was under 50%.
Take `CS(=O)(=O)n1ccc(C(=O)NCC(=O)Nc2nc(-c3cccc(-c4ccnc(N5CCN(C(=O)CCCCCCCCCCNc6ccc7c(c6)C(=O)N(C6CCC(=O)NC6=O)C7=O)CC5)c4)c3)cs2)c1` (stereo not shown) [Compound 35, N-[2-[[4-[3-[2-[4-[11-[[2-(2,6-dioxo-3-piperidyl)-1,3-dioxo-isoindolin-5-yl]amino]undecanoyl]piperazin-1-yl]-4-pyridyl]phenyl]thiazol-2-yl]amino]-2-oxo-ethyl]-1-methylsulfonyl-pyrrole-3-carboxamide]: on HiBit-BRM fusion protein, the DC50 lay in the range of 0.1 to 1 µM and the “BRM HiBit Degradation Maximum measured” value is “A (‘A’ = Maximum degradation >75%)”. In assay [1], the DC50 was under 0.1 µM and the Dmax is over 75%.
Turning to `Cc1ncsc1-c1ccc(CNC(=O)[C@@H]2C[C@@H](O)CN2C(=O)[C@@H](NC(=O)CCCCCCC(=O)NCCCC[C@H](NC(=O)c2ccn(S(C)(=O)=O)c2)C(=O)Nc2nc(-c3ccccc3)cs2)C(C)(C)C)cc1` [Compound 266, N′-[(2S)-1-[(2S,4R)-4-hydroxy-2-([[4-(4-methyl-1,3-thiazol-5-yl)phenyl]methyl]carbamoyl)pyrrolidin-1-yl]-3,3-dimethyl-1-oxobutan-2-yl]-N-[(5S)-5-[(1-methanesulfonylpyrrol-3-yl)formamido]-5-[(4-phenyl-1,3-thiazol-2-yl)carbamoyl]pentyl]octanediamide], on HiBit-BRM fusion protein, the DC50 is over 10 µM and the “BRM HiBit Degradation Maximum measured” value was “C (‘C’ = Maximum degradation <50%)”. In assay [1], the DC50 was over 10 µM and the Dmax was under 50%.
Turning to `CS(=O)(=O)n1ccc(C(=O)NCC(=O)Nc2nc(-c3cccc(-c4ccnc(C5(C(=O)N6CCN(c7ccc8c(c7)C(=O)N(C7CCC(=O)NC7=O)C8=O)CC6)CC5)c4)c3)cs2)c1` (stereo not shown) [Compound 132, N-(4-[3-[2-(1-[4-[2-(2,6-dioxopiperidin-3-yl)-1,3-dioxoisoindol-5-yl]piperazine-1-carbonyl]cyclopropyl)pyridin-4-yl]phenyl]-1,3-thiazol-2-yl)-2-[(1-methanesulfonylpyrrol-3-yl)formamido]acetamide], at HiBit-BRM fusion protein, the DC50 is over 10 µM and the “BRM HiBit Degradation Maximum measured” value is on record as “C (‘C’ = Maximum degradation <50%)”. Besides, in assay [1], the DC50 was over 10 µM and the Dmax is under 50%.
As for `CS(=O)(=O)n1ccc(C(=O)N[C@@H](CCCCNC(=O)CCCCOc2cccc3c2C(=O)N(C2CCC(=O)NC2=O)C3=O)C(=O)Nc2nc(-c3ccccc3)cs2)c1` (stereo partly drawn) [Compound 295, (2S)-6-(5-[[2-(2,6-dioxopiperidin-3-yl)-1,3-dioxoisoindol-4-yl]oxy]pentanemido)-2-[(1-methanesulfonylpyrrol-3-yl)formamido]-N-(4-phenyl-1,3-thiazol-2-yl)hexanamide], on HiBit-BRM fusion protein, the DC50 is over 10 µM and the “BRM HiBit Degradation Maximum measured” value was “C (‘C’ = Maximum degradation <50%)”. In addition, in assay [1], the DC50 was over 10 µM and the Dmax was under 50%.
With `Cc1ncsc1-c1ccc(CNC(=O)[C@@H]2C[C@@H](O)CN2C(=O)[C@@H](NC(=O)CCCCC(=O)NCCCC[C@H](NC(=O)c2ccn(S(C)(=O)=O)c2)C(=O)Nc2nc(-c3ccccc3)cs2)C(C)(C)C)cc1` [Compound 264, N-[(2S)-1-[(2S,4R)-4-hydroxy-2-([[4-(4-methyl-1,3-thiazol-5-yl)phenyl]methyl]carbamoyl)pyrrolidin-1-yl]-3,3-dimethyl-1-oxobutan-2-yl]-N-[(5S)-5-[(1-methanesulfonylpyrrol-3-yl)formamido]-5-[(4-phenyl-1,3-thiazol-2-yl)carbamoyl]pentyl]hexanediamide], on HiBit-BRM fusion protein, the DC50 was over 10 µM and the “BRM HiBit Degradation Maximum measured” value is reported as “C (‘C’ = Maximum degradation <50%)”. Besides, in assay [1], the DC50 was over 10 µM and the Dmax was under 50%.
For `CS(=O)(=O)n1ccc(C(=O)N[C@@H](COCc2ccc(C(=O)NCCOCCOCCNC(=O)COc3ccc4c(c3)C(=O)N(C3CCC(=O)NC3=O)C4=O)cc2)C(=O)Nc2nc(-c3ccccc3)cs2)c1` (stereo partly drawn) [Compound 203, (2S)-3-([4-[(2-[2-[2-(2-[[2-(2,6-dioxopiperidin-3-yl)-1,3-dioxoisoindol-5-yl]oxy]acetamido)ethoxy]ethoxy]ethyl)carbamoyl]phenyl]methoxy)-2-[(1-methanesulfonylpyrrol-3-yl)formamido]-N-(4-phenyl-1,3-thiazol-2-yl)propanamide], at HiBit-BRM fusion protein, the DC50 is over 10 µM and the “BRM HiBit Degradation Maximum measured” value is given as “C (‘C’ = Maximum degradation <50%)”. For the same compound, in assay [1], the DC50 was over 10 µM and the Dmax was under 50%.
With `CS(=O)(=O)n1ccc(C(=O)N[C@@H](COCc2ccc(C(=O)NCCOCCOCCOCCNC(=O)COc3ccc4c(c3)C(=O)N(C3CCC(=O)NC3=O)C4=O)cc2)C(=O)Nc2nc(-c3ccccc3)cs2)c1` (stereo partly drawn) [Compound 202, (2S)-3-[(4-[[2-(2-[2-[2-(2-[[2-(2,6-dioxopiperidin-3-yl)-1,3-dioxoisoindol-5-yl]oxy]acetamido)ethoxy]ethoxy]ethoxy)ethyl]carbamoyl]phenyl)methoxy]-2-[(1-methanesulfonylpyrrol-3-yl)formamido]-N-(4-phenyl-1,3-thiazol-2-yl)propanamide], at HiBit-BRM fusion protein, the DC50 was over 10 µM and the “BRM HiBit Degradation Maximum measured” value is given as “C (‘C’ = Maximum degradation <50%)”. In assay [1], the DC50 was over 10 µM and the Dmax was under 50%.
Turning to `Cc1ncsc1-c1ccc(CNC(=O)[C@@H]2C[C@@H](O)CN2C(=O)[C@@H](NC(=O)CCCCCCCCCCCCC(=O)NCCCC[C@H](NC(=O)c2ccn(S(C)(=O)=O)c2)C(=O)Nc2nc(-c3ccccc3)cs2)C(C)(C)C)cc1` [Compound 267, N-[(2S)-1-[(2S,4R)-4-hydroxy-2-([[4-(4-methyl-1,3-thiazol-5-yl)phenyl]methyl]carbamoyl)pyrrolidin-1-yl]-3,3-dimethyl-1-oxobutan-2-yl]-N-[(5S)-5-[(1-methanesulf-onylpyrrol-3-yl)formamido]-5-[(4-phenyl-1,3-thiazol-2-yl)carbamoyl]pentyl]tetradecanediamide], on HiBit-BRM fusion protein, the DC50 was over 10 µM and the “BRM HiBit Degradation Maximum measured” value is listed as “C (‘C’ = Maximum degradation <50%)”. Also, in assay [1], the DC50 is over 10 µM and the Dmax is under 50%.
Consider `CS(=O)(=O)n1ccc(C(=O)NCC(=O)Nc2nc(-c3cccc(-c4ccnc(OCCNC(=O)CCOCCOCCOc5ccc6c(c5)C(=O)N(C5CCC(=O)NC5=O)C6=O)c4)c3)cs2)c1` (stereo not shown) [Compound 38, N-(2-((4-(3-(2-(2-(3-(2-(2-((2-(2,6-dioxopiperidin-3-yl)-1,3-dioxoisoindolin-5-yl)oxy)ethoxy)ethoxy)propanamido)ethoxy)pyridin-4-yl)phenyl)thiazol-2-yl)amino)-2-oxoethyl)-1-(methylsulfonyl)-1H-pyrrole-3-carboxamide], for which, at HiBit-BRM fusion protein, the DC50 was over 10 µM and the “BRM HiBit Degradation Maximum measured” value is “C (‘C’ = Maximum degradation <50%)”. In assay [1], the DC50 lay within 0.1 to 1 µM and the Dmax is over 75%.
On to `COC(=O)N1CCCC(c2csc(NC(=O)[C@H](CCCCNC(=O)CCCCCCCCCCNc3cccc4c3C(=O)N(C3CCC(=O)NC3=O)C4=O)NC(=O)c3ccn(C(C)(C)C)c3)n2)C1` (stereo partly drawn) [Compound 184, methyl 3-[2-[(2S)-2-[(1-tert-butylpyrrol-3-yl)formamido]-6-(11-[[2-(2,6-dioxopiperidin-3-yl)-1,3-dioxoisoindol-4-yl]amino]undecanamido)hexanamido]-1,3-thiazol-4-yl]piperidine-1-carboxylate], for which, at HiBit-BRM fusion protein, the DC50 was over 10 µM and the “BRM HiBit Degradation Maximum measured” value is reported as “C (‘C’ = Maximum degradation <50%)”. In addition, in assay [1], the DC50 is over 10 µM and the Dmax is under 50%.
With `CS(=O)(=O)n1ccc(C(=O)NCC(=O)Nc2nc(-c3cccc(-c4ccnc(C5(C(=O)NCCCCCNc6cccc7c6C(=O)N(C6CCC(=O)NC6=O)C7=O)CC5)c4)c3)cs2)c1` (stereo not shown) [Compound 12, N-(2-((4-(3-(2-(1-((5-((2-(2,6-dioxopiperidin-3-yl)-1,3-dioxoisoindolin-4-yl)amino)pentyl)carbamoyl)cyclopropyl)-pyridin-4-yl)phenyl)thiazol-2-yl)amino)-2-oxoethyl)-1-(methylsulfonyl)-1H-pyrrole-3-carboxamide], on HiBit-BRM fusion protein, the DC50 was over 10 µM and the “BRM HiBit Degradation Maximum measured” value was “C (‘C’ = Maximum degradation <50%)”. Further, in assay [1], the DC50 was 0.1 to 1 µM and the Dmax is over 75%.
